# Measurements taken from patent publication US11806393B2, “Flavivirus peptide sequences, epitopes, and methods and uses thereof” (priority 2017, dated 2023).
# How the values were obtained:
# Type in all cases: cell-based, mouse
# CD8+ T cells [1] = test: IFNγ-ELISPOT of predicted H-2b-binding ZIKV peptides; details: CD8+ T cells of mice infected with MR766 or FSS13025, day 7; positive: SFC per 10^6 CD8+ T cells ≥20 and stimulation index ≥2
# Experimental: CD8^+ T cells were isolated by magnetic bead positive selection (Miltenyi Biotec, Germany). A total of 2×10^5 CD8^+ T cells were stimulated with 1×10^5 LPS-blast cells as antigen presenting cells (APCs) and 10 μg of individual ZIKV-derived peptide in 96-well flat-bottom plates (IMMOBILON™-P; Millipore, MA) coated with anti-mouse IFNγ monoclonal antibody (mAb) (clone AN18; Mabtech, Sweden) in triplicate. IFNγ-ELISPOT was performed as previously detailed (Elong Ngono et al., 2016). Positive peptides were those with a number of spot-forming cells (SFC) per 10^6 CD8^+ T cells ≥20 and a stimulation index ≥2 based on the negative control (DMSO). […]
# The following results are with reference to FIG. 3A and FIG. 3B, where five-week-old LysMCre^+IFNAR^fl/fl were infected retro-orbitally with 10^4 FFU of ZIKV MR766 or FSS13025. […] A total of 244 peptides from ZIKV strains predicted to bind H-2Kb and H-2db with high affinity were screened. Two independent experiments for each ZIKV strain (n=5 mice for each experiment) were performed in triplicate per peptide. The data are expressed as the mean of spot forming cells (SFC) per 10^6 CD8^+ T cells, and error bars are represented as SEM. One-way ANOVA was used to compare the mean of each peptide with the control (DMSO) ([…]). […] The dotted line corresponds to the average amount of IFNγ produced by MOCK mice when stimulated with positive ZIKV-derived peptides (0.19% of IFNγ+CD8^+ T cells).
# CD8+ T cells [2] = test: IFNγ ELISPOT, ZIKV-infected Ifnar-/- HLA-B*0702 transgenic mice; details: HLA-B*0702 mice; for SFC/10^6 CD8+ T cells, MR766: 7 days after 1×10^2 FFU ZIKV MR766; for SFC/10^6 CD8+ T cells, FSS13025: 7 days after 1×10^2 FFU ZIKV FSS13025; for immunodominance in IFNγ ELISPOT: immunodominant: >500 SFCs/10^6 CD8+ T cells, shared by both ZIKV strains
# Experimental: (§1) Two ZIKV strains, MR766 (Uganda, 1947) and FSS13025 (Cambodia, 2010), were obtained from the World Reference Center for Emerging Viruses and Arboviruses (WRCEVA). The mouse-adapted DENV2 strain S221 is a triple-plaque purified clone derived from DENV2 D2S1038. Both ZIKV and DENV2 were amplified in C6/36 mosquito cells, and viral titers were measured using baby hamster kidney (BHK)-21 cell-based focus forming assay (FFA). For epitope screening, 5-week old mice (female or male) were infected retro-orbitally (R.O.) with either 1×102 FFU of ZIKV FSS13025 or ZIKV MR766, or 2×10^4 FFU of DENV2 S221 in 200 μl 10% FBS/PBS. Seven days after infection, CD8^+ T cells were isolated from splenocytes and used for ELISPOT assay, while the splenocytes were directly used for ICS assay. Additionally, 5-week old mice were inoculated I.P. with 2×10^3 FFU of DENV2 S221 for 4 weeks.
# CD8^+ T cells were isolated from splenocytes using magnetic bead positive selection (Miltenyi Biotec, Germany) 7 days after virus infection. 2×10^5 CD8^+ T cells were stimulated with 1×10^5 LPS-blasts loaded with 10 μg of individual peptide in 96-well flat-bottom plates (IMMOBILON™-P; Millipore, Bedford, Mass.) that were coated with anti-IFNγ mAb (clone AN18; Mabtech, Stockholm, Sweden) in triplicate. Concanavalin A (ConA) was used as positive control. After 20 hours of incubation, biotinylated anti-mouse IFNγ mAb (R4-6A2; Mabtech), followed by ABC peroxidase (Vector Laboratories, Burlingame, Calif., USA) and then 3-amino-9-ethylcarbazole (Sigma-Aldrich, St. Louis, Mo., USA) were added into the wells. […] A peptide inducing a magnitude of >500 SFCs/10^6 CD8^+ T cells was considered as an immunodominant peptide.
# Two independent experiments performed in triplicate were averaged and the error bars represent the SEM. The data are expressed as the mean number of spot forming cells (SFC) per 10^6 CD8^+ T cells. The criteria for positivity were net SFC per 10^6 cells of >20, and a stimulation index of >2.0 when compared with the negative control. Dotted lines represent the cutoff value. * Indicates a positive response. […] ConA denotes Concanavalin A.
# CD3+CD8+ T cells = test: IFNγ ICS, ZIKV-infected Ifnar-/- HLA-B*0702 transgenic mice; details: for % IFNγ+ CD8+ T cells, MR766 / % IFNγ+ CD8+ T cells, FSS13025: HLA-B*0702 mice; for % IFNγ+ CD8+ T cells, MR766: 7 days after ZIKV MR766, ICS; for % IFNγ+ CD8+ T cells, FSS13025: 7 days after ZIKV FSS13025, ICS
# Experimental: as §1
# Spleens were harvested from virus-infected, mock-immunized, or peptide-immunized mice. 1×10^6 splenocytes were plated in each well of 96-well U-bottom plates and stimulated with individual peptide (10 μg crude peptide or 1 μg pure peptide per well) for 6 hours. Five hours before the end of incubation, Brefeldin A (GolgiPlug; BD Biosciences) and PE-conjugated anti CD107a mAb (clone 1D4B, eBioscience) were added to the cells. Splenocytes stimulated with PMA-ionomycin were used as the positive control, while cells without any stimulation were the negative control. […] Samples were run using an LSR™ II (BD Biosciences) and analyzed using FLOWJO™ software X 10.0.7 (Tree Star, Ashland, Oreg.).
# Data represent the average of two independent experiments and are expressed as mean±SEM. *, P<0.05; **, P<0.01; Two-tailed Mann-Whitney test. P/I denotes PMA/ionomycin.
Substance,"SFC/10^6 CD8+ T cells, MR766 (CD8+ T cells [2])","% IFNγ+ CD8+ T cells, MR766 (CD3+CD8+ T cells)","SFC/10^6 CD8+ T cells, FSS13025 (CD8+ T cells [2])",further results
25 (SNRDFVEGM) [compound 25],–,–,–,"Strains (ZIKV strain for which the peptide induced a positive T cell response, IFNγ-ELISPOT) (CD8+ T cells [1]): MR766/FSS"
26 (SQLTPLTLI) [compound 26],–,–,–,"Strains (ZIKV strain for which the peptide induced a positive T cell response, IFNγ-ELISPOT) (CD8+ T cells [1]): MR766/FSS"
27 (SVKKNLPFVM) [compound 27],–,–,–,"Strains (ZIKV strain for which the peptide induced a positive T cell response, IFNγ-ELISPOT) (CD8+ T cells [1]): MR766/FSS"
AAGKRGAAL [MR-NS3596-NS4A1],148 SFC/10^6 CD8+ T cells,–,–,–
FPDSNSPINI (FPDSNSPIM) [FSS/MR-NS3309-317],565 SFC/10^6 CD8+ T cells,(0.49%),335 SFC/10^6 CD8+ T cells,–
GPCKVPAQMAV [FSS-E337-347],271 SFC/10^6 CD8+ T cells,–,–,–
GPQRLPVPV [FSS/MR-NS199-107],103 SFC/10^6 CD8+ T cells,–,–,–
IPYLGKREDL [FSS/MR-NS5587-596],438 SFC/10^6 CD8+ T cells,(0.26%),178 SFC/10^6 CD8+ T cells,–
LPILAALTPL [MR-NS2A141-150],540 SFC/10^6 CD8+ T cells,(0.28%),–,–
LPSHSTRKL [FSS/MR-M4-12],398 SFC/10^6 CD8+ T cells,(0.28%),235 SFC/10^6 CD8+ T cells,–
RPAEGGKTVM [MR-NS5332-341],277 SFC/10^6 CD8+ T cells,(0.35%),–,–
RPASAWAIYA [FSS/MR-NS4B35-44],180 SFC/10^6 CD8+ T cells,(0.49%),–,–
RPEADKVAAI [FSS/MR-NS3492-501],157 SFC/10^6 CD8+ T cells,–,–,–
RPRTTVVAENI [FSS/MR-NS5605-614],641 SFC/10^6 CD8+ T cells,(0.55%),383 SFC/10^6 CD8+ T cells,"% IFNγ+ CD8+ T cells, FSS13025 (CD3+CD8+ T cells): (0.22%)"
RPYKAAAAQL [FSS/MR-NS4A36-45],120 SFC/10^6 CD8+ T cells,–,–,–
RVIDSRRCL [FSS/MR-NS3405-413],718 SFC/10^6 CD8+ T cells,(0.4%),236 SFC/10^6 CD8+ T cells,"% IFNγ+ CD8+ T cells, FSS13025 (CD3+CD8+ T cells): (0.23%)"
SPFGGLKRLPA [FSS-C25-35],–,–,802 SFC/10^6 CD8+ T cells,"% IFNγ+ CD8+ T cells, FSS13025 (CD3+CD8+ T cells): (0.79%); simultaneous IFNγ and TNFα production by peptide-stimulated CD8+ T cells (CD3+CD8+ T cells; ZIKV FSS13025-infected mice): stimulated production of both IFNγ and TNFα"
SPQDNQMAI [FSS/MR-NS4A125-133],159 SFC/10^6 CD8+ T cells,–,–,–
SPRAEATL [FSS/MR-E173-180],108 SFC/10^6 CD8+ T cells,–,167 SFC/10^6 CD8+ T cells,–
TPHWNNKEAL [FSS/MR-E233-242],218 SFC/10^6 CD8+ T cells,(0.3%),158 SFC/10^6 CD8+ T cells,–
TPLARGTL [FSS/MR-NS2A148-155],1055 SFC/10^6 CD8+ T cells,(0.87%),706 SFC/10^6 CD8+ T cells,"% IFNγ+ CD8+ T cells, FSS13025 (CD3+CD8+ T cells): (0.28%); simultaneous IFNγ and TNFα production by peptide-stimulated CD8+ T cells (CD3+CD8+ T cells; ZIKV MR766-infected mice): stimulated simultaneous production of IFNγ and TNFα; immunodominance in IFNγ ELISPOT (CD8+ T cells [2]): immunodominant"
TPLTLIVAIIL [FSS/MR-NS4B105-115],163 SFC/10^6 CD8+ T cells,(0.4%),–,–
TPNSPRAEA [FSS/MR-E170-178],155 SFC/10^6 CD8+ T cells,–,–,–
VPRTDNIAL [MR-NS2A133-141],776 SFC/10^6 CD8+ T cells,(1.39%),648 SFC/10^6 CD8+ T cells,"% IFNγ+ CD8+ T cells, FSS13025 (CD3+CD8+ T cells): (0.54%); immunodominance in IFNγ ELISPOT (CD8+ T cells [2]): immunodominant"
